Laboratory results published in US20260070945A1, “MACROCYCLIC IMMUNOMODULATORS” (Bristol-Myers Squibb Company, priority 2022, published 2026).
*1 amine or outer side, *2 acyl side, *3 side chain or, on linkers, in order; H or OH if unused. Where a SMILES comes first, the peptide text is derived from it. Bridges are numbered along the chain shown (N, C = ends). [ ]: non-standard residue; d: D form. The star is where a group is joined. ξ: configuration not given here. Bip = N[C@@H](Cc1ccc(-c2ccccc2)cc1)C(=O)O; Phe(3-Me) = Cc1cccc(C[C@H](N)C(=O)O)c1; NMeAEEA = CN(CCOCCOCC(=O)[*:2])[*:1]; Cha = N[C@@H](CC1CCCCC1)C(=O)O; Cit = NC(=O)NCCC[C@H](N)C(=O)O; Thr(3ξ) = CC(O)[C@H](N)C(=O)O; hSer = N[C@@H](CCO)C(=O)O; Carboxymethyl = O=C(O)C*; NMeA = CN[C@@H](C)C(=O)O; Aun = NCCCCCCCCCCC(=O)O; Dab = NCC[C@H](N)C(=O)O

Biological target: T1, PD-1/PD-L1 interaction (PE-labeled human PD-L1-Ig binding to Jurkat cell line over-expressing human PD-1) (Homo sapiens, UniProt Q15116)
T1 construct: expressed in transfected cells; host or cells: Jurkat
T1 sequence (Q15116 25-288): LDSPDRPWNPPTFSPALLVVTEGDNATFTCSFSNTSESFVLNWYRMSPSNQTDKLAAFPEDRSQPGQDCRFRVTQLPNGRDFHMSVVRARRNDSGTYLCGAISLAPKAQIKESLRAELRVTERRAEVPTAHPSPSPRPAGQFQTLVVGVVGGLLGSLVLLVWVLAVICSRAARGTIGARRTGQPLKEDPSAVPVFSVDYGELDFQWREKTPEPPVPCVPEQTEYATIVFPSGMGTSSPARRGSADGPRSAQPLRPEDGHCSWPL
Test: Jurkat-PD-1 Cell Binding High-Content Screening Assay (CBA)
Details: Jurkat-hPD-1 cells, PE-labeled PD-L1-Ig 20 nM final; read-out: Jurkat HPD1 PDL1 IC50
Method in brief: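 Cells 8×10^3/well, DMEM + 10% FCS; cpd 2 h, 37 °C; PE–PD-L1-Ig 20 nM final, 1 h; PFA fix + Hoechst 33342, 3× dPBS wash; high-content imager.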

For CC(=O)NCCCC[C@@H]1NC(=O)[C@H](Cc2ccc(-c3ccccc3)cc2)NC(=O)[C@H](C(C)C)NC(=O)[C@H](Cc2cccc(C)c2)NC(=O)[C@H](CC(=O)O)NC(=O)[C@H](Cc2ccc(OCC(=O)O)cc2)NC(=O)[C@H](C(C)O)NC(=O)CSC[C@@H](C(=O)N(C)CCOCCOCC(=O)NCCCCCCCCCCC(=O)O)NC(=O)[C@H](C(C)C)NC(=O)[C@H](C(C)C)NC(=O)[C@H](CC2CCCCC2)NC(=O)[C@H](CCN)NC(=O)[C@@H](CC(C)C)NC(=O)[C@H](C)N(C)C1=O (stereo partly drawn) [Example 2358] ({CH2CO}-[Thr(3ξ)]Y(Carboxymethyl)D[Phe(3-Me)]V[Bip]K(Ac)[NMeA][dL][Dab][Cha]VVC[NMeAEEA][Aun]-OH; thioether N-14), which IC50 is on record?
Its IC50 is 16.6 nM.

For Cc1cccc(C[C@@H]2NC(=O)[C@H](CC(=O)O)NC(=O)[C@H](Cc3ccc(OCC(=O)O)cc3)NC(=O)[C@H](C(C)O)NC(=O)CSC[C@@H](C(=O)N(C)CCOCCOCC(=O)NCCCCCCCCCCC(=O)O)NC(=O)[C@H](CCCNC(N)=O)NC(=O)[C@H](C(C)C)NC(=O)[C@H](CC3CCCCC3)NC(=O)[C@H](CCN)NC(=O)[C@@H](CC(C)C)NC(=O)[C@H](C)N(C)C(=O)[C@H](C(C)C)NC(=O)[C@H](Cc3ccc(-c4ccccc4)cc3)NC(=O)[C@H](C(C)C)NC2=O)c1 (stereo partly drawn) [Example 2359] ({CH2CO}-[Thr(3ξ)]Y(Carboxymethyl)D[Phe(3-Me)]V[Bip]V[NMeA][dL][Dab][Cha]V[Cit]C[NMeAEEA][Aun]-OH; thioether N-14), which IC50 is on record?
Its IC50 is 26.3 nM.

Cc1cccc(C[C@@H]2NC(=O)[C@H](CC(=O)O)NC(=O)[C@H](Cc3ccc(OCC(=O)O)cc3)NC(=O)[C@H](CCCNC(=N)N)NC(=O)CSC[C@@H](C(=O)N[C@H](CC(N)=O)C(=O)NCCCCCCCCCCC(=O)O)NC(=O)[C@H](C(C)C)NC(=O)[C@H](C(C)C)NC(=O)[C@H](CC3CCCCC3)NC(=O)[C@H](CCN)NC(=O)[C@@H](CC(C)C)NC(=O)[C@H](C)N(C)C(=O)[C@H](Cc3ccc(OCC(=O)O)cc3)NC(=O)[C@H](Cc3ccc(-c4ccccc4)cc3)NC(=O)[C@H](Cc3ccc(OCC(=O)O)cc3)NC2=O)c1 [Example 2360] ({CH2CO}-RY(Carboxymethyl)D[Phe(3-Me)]Y(Carboxymethyl)[Bip]Y(Carboxymethyl)[NMeA][dL][Dab][Cha]VVC[dN][Aun]-OH; thioether N-14) was tested. Which IC50 did it give?
Its IC50 is 26.9 nM.

For Cc1cccc(C[C@@H]2NC(=O)[C@H](CC(=O)O)NC(=O)[C@H](Cc3ccc(OCC(=O)O)cc3)NC(=O)[C@H](C(C)O)NC(=O)CSC[C@@H](C(=O)N[C@H](CC(N)=O)C(=O)NCCCCCCCCCCC(=O)O)NC(=O)[C@H](C(C)C)NC(=O)[C@H](C(C)C)NC(=O)[C@H](CC3CCCCC3)NC(=O)[C@H](CCN)NC(=O)[C@@H](CC(C)C)NC(=O)[C@H](C)N(C)C(=O)[C@H](Cc3ccc(OCC(=O)O)cc3)NC(=O)[C@H](Cc3ccc(-c4ccccc4)cc3)NC(=O)[C@H](Cc3ccc(OCC(=O)O)cc3)NC2=O)c1 (stereo partly drawn) [Example 2361] ({CH2CO}-[Thr(3ξ)]Y(Carboxymethyl)D[Phe(3-Me)]Y(Carboxymethyl)[Bip]Y(Carboxymethyl)[NMeA][dL][Dab][Cha]VVC[dN][Aun]-OH; thioether N-14), which IC50 is on record?
The IC50 was 18.3 nM.

Which IC50 does the source give for Cc1cccc(C[C@@H]2NC(=O)[C@H](CC(=O)O)NC(=O)[C@H](Cc3ccc(OCC(=O)O)cc3)NC(=O)[C@H](CCCNC(=N)N)NC(=O)CSC[C@@H](C(=O)N[C@H](CC(N)=O)C(=O)NCCCCCCCCCCC(=O)O)NC(=O)[C@H](CCO)NC(=O)[C@H](C(C)C)NC(=O)[C@H](CC3CCCCC3)NC(=O)[C@H](CCN)NC(=O)[C@@H](CC(C)C)NC(=O)[C@H](C)N(C)C(=O)[C@H](Cc3ccc(OCC(=O)O)cc3)NC(=O)[C@H](Cc3ccc(-c4ccccc4)cc3)NC(=O)[C@H](Cc3ccc(OCC(=O)O)cc3)NC2=O)c1 [Example 2362] ({CH2CO}-RY(Carboxymethyl)D[Phe(3-Me)]Y(Carboxymethyl)[Bip]Y(Carboxymethyl)[NMeA][dL][Dab][Cha]V[hSer]C[dN][Aun]-OH; thioether N-14) here?
Its IC50 is 40.2 nM.
